Measured values published in PubChem BioAssay AID2060490 (Molecular Pharmacology Branch, DTP, NCI, 2025).

Tested on: 885512-296-R-J2-PDC complex spheroid viability
Assay: Anticancer human tumor 885512-296-R-J2-PDC patient-derived breast carcinoma cell line growth inhibition [GQUAD]
Conditions: for IC50: curve of first compound; for viability, T/C: stronger effect = lower value; active = viability on the fitted dose curve at most 10% of control; inactive = the rest
Outline: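 Tumor cells were grown as complex spheroids with HUVEC endothelial cells and mesenchymal stem cells as stroma. G-quadruplex stabilizers were combined with targeted agents over half-log dilutions from near the clinical Cmax, or from 10 microM.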

[1] = second compound 0.0316 µM, first compound 0.0316 µM
[2] = second compound 0.0316 µM, first compound 0.1 µM
[3] = second compound 0.0316 µM, first compound 0.316 µM
[4] = second compound 0.0316 µM, first compound 1 µM
[5] = second compound 0.0316 µM, first compound 3.16 µM
[6] = second compound 0.0316 µM, first compound 10 µM
[7] = second compound 0.1 µM, first compound 0.0316 µM
[8] = second compound 0.1 µM, first compound 0.1 µM
[9] = second compound 0.1 µM, first compound 0.316 µM
[10] = second compound 0.1 µM, first compound 1 µM
[11] = second compound 0.1 µM, first compound 3.16 µM
[12] = second compound 0.1 µM, first compound 10 µM
[13] = second compound 0.316 µM, first compound 0.0316 µM
[14] = second compound 0.316 µM, first compound 0.1 µM
[15] = second compound 0.316 µM, first compound 0.316 µM
[16] = second compound 0.316 µM, first compound 1 µM
[17] = second compound 0.316 µM, first compound 3.16 µM
[18] = second compound 0.316 µM, first compound 10 µM
[19] = second compound 1 µM, first compound 0.0316 µM
[20] = second compound 1 µM, first compound 0.1 µM
[21] = second compound 1 µM, first compound 0.316 µM
[22] = second compound 1 µM, first compound 1 µM
[23] = second compound 1 µM, first compound 3.16 µM
[24] = second compound 1 µM, first compound 10 µM
[25] = second compound 3.16 µM, first compound 0.0316 µM
[26] = second compound 3.16 µM, first compound 0.1 µM
[27] = second compound 3.16 µM, first compound 0.316 µM
[28] = second compound 3.16 µM, first compound 1 µM
[29] = second compound 3.16 µM, first compound 3.16 µM
[30] = second compound 3.16 µM, first compound 10 µM
[31] = second compound 10 µM, first compound 0.0316 µM
[32] = second compound 10 µM, first compound 0.1 µM
[33] = second compound 10 µM, first compound 0.316 µM
[34] = second compound 10 µM, first compound 1 µM
[35] = second compound 10 µM, first compound 3.16 µM
[36] = second compound 10 µM, first compound 10 µM
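Also: spheroids exposed to the compounds for one week.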
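For viability, T/C in this document: percent of tumor spheroid viability relative to DMSO vehicle control wells.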

C=CC(=O)N1CCN(c2nc(=O)n(-c3c(C)ccnc3C(C)C)c3nc(-c4c(O)cccc4F)c(F)cc23)C(C)C1 (stereo unspecified) + Cc1[nH]c2ccc(F)cc2c1-c1nc2c3cccnc3c3ncccc3c2[nH]1
active: viability, T/C [31] 1.88% | viability, T/C [32] 1.76% | viability, T/C [33] 2.07% | viability, T/C [34] 3.47% | viability, T/C [35] 6.47% | viability, T/C [36] 3.97%
< 31.6 nM: IC50 (second compound 3.16 µM) | IC50 (second compound 10 µM)
inactive: viability, T/C [1] 122% | viability, T/C [2] 91% | viability, T/C [3] 84.7% | viability, T/C [4] 106% | viability, T/C [5] 111% | viability, T/C [6] 96.3% | viability, T/C [7] 118% | viability, T/C [8] 96.2% | viability, T/C [9] 97.4% | viability, T/C [10] 102% | viability, T/C [11] 103% | viability, T/C [12] 93.4% | viability, T/C [13] 92.9% | viability, T/C [14] 103% | viability, T/C [15] 102% | viability, T/C [16] 102% | viability, T/C [17] 91.9% | viability, T/C [18] 88.8% | viability, T/C [19] 78.9% | viability, T/C [20] 79.1% | viability, T/C [21] 95.7% | viability, T/C [22] 90% | viability, T/C [23] 77.3% | viability, T/C [24] 72.1% | viability, T/C [25] 30.6% | viability, T/C [26] 22.9% | viability, T/C [27] 21.2% | viability, T/C [28] 31.2% | viability, T/C [29] 32.9% | viability, T/C [30] 27.2%
> 10000 nM: IC50 (second compound 0.0316 µM) | IC50 (second compound 0.1 µM) | IC50 (second compound 0.316 µM) | IC50 (second compound 1 µM)

CC[C@@]1(O)C(=O)OCc2c1cc1n(c2=O)Cc2cc3c(CN(C)C)c(O)ccc3nc2-1 + Cc1[nH]c2ccc(F)cc2c1-c1nc2c3cccnc3c3ncccc3c2[nH]1
inactive: viability, T/C (second compound 0.0316 µM, first compound 0.000999 µM) 105% | viability, T/C (second compound 0.0316 µM, first compound 0.00316 µM) 88.5% | viability, T/C (second compound 0.0316 µM, first compound 0.00999 µM) 89.9% | viability, T/C [1] 41.7% | viability, T/C (second compound 0.0316 µM, first compound 0.0999 µM) 14.9% | viability, T/C (second compound 0.1 µM, first compound 0.000999 µM) 110% | viability, T/C (second compound 0.1 µM, first compound 0.00316 µM) 101% | viability, T/C (second compound 0.1 µM, first compound 0.00999 µM) 98.5% | viability, T/C [7] 46.9% | viability, T/C (second compound 0.316 µM, first compound 0.000999 µM) 96% | viability, T/C (second compound 0.316 µM, first compound 0.00316 µM) 101% | viability, T/C (second compound 0.316 µM, first compound 0.00999 µM) 87.3% | viability, T/C [13] 48.3% | viability, T/C (second compound 0.316 µM, first compound 0.0999 µM) 11.2% | viability, T/C (second compound 1 µM, first compound 0.000999 µM) 68.2% | viability, T/C (second compound 1 µM, first compound 0.00316 µM) 74.6% | viability, T/C (second compound 1 µM, first compound 0.00999 µM) 72% | viability, T/C [19] 35.7% | viability, T/C (second compound 3.16 µM, first compound 0.000999 µM) 14.8% | viability, T/C (second compound 3.16 µM, first compound 0.00316 µM) 23.3% | viability, T/C (second compound 3.16 µM, first compound 0.00999 µM) 14%
19.8 nM: IC50 (second compound 1 µM)
< 0.999 nM: IC50 (second compound 3.16 µM) | IC50 (second compound 10 µM)
active: viability, T/C [3] 6.49% | viability, T/C (second compound 0.1 µM, first compound 0.0999 µM) 10.7% | viability, T/C [9] 4.48% | viability, T/C [15] 3.51% | viability, T/C (second compound 1 µM, first compound 0.0999 µM) 9.71% | viability, T/C [21] 3.76% | viability, T/C [25] 6.97% | viability, T/C (second compound 3.16 µM, first compound 0.0999 µM) 2.52% | viability, T/C [27] 2.01% | viability, T/C (second compound 10 µM, first compound 0.000999 µM) 1.29% | viability, T/C (second compound 10 µM, first compound 0.00316 µM) 2.13% | viability, T/C (second compound 10 µM, first compound 0.00999 µM) 1.51% | viability, T/C [31] 1.58% | viability, T/C (second compound 10 µM, first compound 0.0999 µM) 1.12% | viability, T/C [33] 0.82%
26.3 nM: IC50 (second compound 0.0316 µM)
29.7 nM: IC50 (second compound 0.1 µM)
29.9 nM: IC50 (second compound 0.316 µM)

COc1cc(C2c3cc4c(cc3C(OC3OC5COC(C)OC5C(O)C3O)C3COC(=O)C23)OCO4)cc(OC)c1O (stereo unspecified) + Cc1[nH]c2ccc(F)cc2c1-c1nc2c3cccnc3c3ncccc3c2[nH]1
active: viability, T/C [6] 10.1% | viability, T/C [12] 10% | viability, T/C [24] 6.78% | viability, T/C [28] 7.13% | viability, T/C [29] 4.87% | viability, T/C [30] 2.93% | viability, T/C [31] 1.61% | viability, T/C [32] 3.08% | viability, T/C [33] 1.52% | viability, T/C [34] 1.53% | viability, T/C [35] 1.51% | viability, T/C [36] 1.37%
inactive: viability, T/C [1] 96.3% | viability, T/C [2] 86.7% | viability, T/C [3] 77.3% | viability, T/C [4] 41% | viability, T/C [5] 13.6% | viability, T/C [7] 117% | viability, T/C [8] 91.5% | viability, T/C [9] 94.2% | viability, T/C [10] 39.9% | viability, T/C [11] 11.4% | viability, T/C [13] 91.8% | viability, T/C [14] 98.4% | viability, T/C [15] 82.1% | viability, T/C [16] 36.1% | viability, T/C [17] 16.5% | viability, T/C [18] 8.49% | viability, T/C [19] 70.5% | viability, T/C [20] 76% | viability, T/C [21] 62.3% | viability, T/C [22] 37.9% | viability, T/C [23] 13.7% | viability, T/C [25] 21.3% | viability, T/C [26] 13.6% | viability, T/C [27] 15.8%
578 nM: IC50 (second compound 1 µM)
< 31.6 nM: IC50 (second compound 3.16 µM) | IC50 (second compound 10 µM)
806 nM: IC50 (second compound 0.1 µM)
739 nM: IC50 (second compound 0.0316 µM)
715 nM: IC50 (second compound 0.316 µM)
